Consider 3 sequences from patent US6830883B1, “Method for typing of minor histocompatibility antigen HA-1” (Rijksuniversiteit Leiden, priority 1997, dated 2004).

Assay [1] deals with recombinant HLA-A2.1 and β2-microglobulin. The assay is described as follows: HLA-A2.1 peptide binding assay (inhibition of binding of fluorescent standard peptide […], cell free). To be noted: for IC50: cell free, determined on the results of 4 experiments, read-out: IC50 (concentration that inhibited the binding of a fluorescent standard peptide to HLA-A2.1 by 50%); for binder category for HLA-A2.1: classified from the IC50. The arrangement: species or system human. The protocol:
a. Binding of HA-1^H and HA-1^R peptides to HLA-A2.1. The binding of HA-1^H and HA-1^R peptides were assayed for their ability to inhibit the binding of fluorescent peptide […] to recombinant HLA-A2.1 and β2-microglobulin in a cell free peptide binding assay. One representative experiment is shown.
A quantitative assay for HLA-A2.1 binding peptides based on the inhibition of binding of the flourescent labeled standard peptide Hbc 18-27 F to C6 ([…]) to recombinant HLA-A2.1 protein and β2-microglobulin was used ^26,27. In short, HLA-A2.1 concentrations yielding approximately 40-60% bound fluorescent standard peptide were used with 15 pmol/well (150 nM) β2-microglobulin (Sigma). Various doses of the test peptides were coincubated with 100 fmol/well (1 nM) fluorescent standard peptide. HLA-A2.1 and β2-microglobulin for 1 days at room temperature in the dark in a volume of 100 μl in assay buffer. The percent of MHC-bound fluoescence was determined by gel filtration and the 50% inhibitory dose was deduced for each peptide using one-site competition non-linear regression analysis with the prismgraph software. Synthetic peptides were manufactured on a Abimed 422 multiple peptide synthesizer (Abimed, Langenfeld, Germany) and were more than 90% pure as checked by reverse phase HPLC.

Assay [2] concerns HA-1 specific T cell clones 3HA15, clone 15 and 5W38 (T2 target cells). The assay is described as follows: 51Cr-release reconstitution assay: synthetic peptide on T2 cells with HA-1 specific CTL clones. Format: cell-based, human. As to conditions: for recognition by HA-1 specific CTL clones / reconstitution of the HA-1 epitope: synthetic peptide titrated on T2 cells, 51Cr-release. The protocol: b. Reconstitution assay with different concentrations of synthetic mH HA-1 peptide with three HA-1 specific T cell clones, 3HA15, clone 15 and 5W38. Background lysis of T2 by the CTL in the absence of any peptide was for 3HA15 4%, for clone 15 10% and for 5W38 2%. Positive control lysis was for 3HA15 46%, for clone 15 47% and 5W38 48 48%.
b. Reconstitution assay with different concentrations of synthetic […] peptide with HA-1 specific T cells. The HA-1^R peptide was titrated and preincubated with T2 cells. Three HA-1 specific T cells clones, 5W38, 3HA15 and clone 15 were added and a 4 hr ^51Cr-release assay was performed. Background lysis of T2 by the CTL in the absence of any peptide was for 3HA15 4%, for clone 15 10% and for 5W38 2%. Positive control lysis was for 3HA15 46%, for clone 15 47% and 5W38 48%.
HPLC fractions and synthetic peptides were tested in a ^51Cr-release assay as described^24. 2500 ^51Cr labeled T2 cells in 25 μl were incubated with 25 μl peptide dissolved in Hanks 50 mM Hepes for 30 minutes at 37° C. Cytotoxic T cells were added in an endvolume of 150 μl. When HPLC peptide fractions were tested, T2 was incubated with 2 μg/ml MA2.1 during the ^51Cr labelling. After 4 hours at 37° C. the supernatants were harvested.

Where no end group is shown, it is not given here.

On to VLHDDLLEA, for which, in assay [1], the IC50 came out at 30 nM and the “binder category for HLA-A2.1” value is given as “high affinity binders”. Moreover, the EC50 in assay [2] (3 different HA-1 specific CTL clones, T2 target cells, 4 hr, read-out: half maximal activity in CML (51Cr-release) assay) was 0.15 to 0.2 nM. In addition, the “recognition by HA-1 specific CTL clones / reconstitution of the HA-1 epitope” value in assay [2] was “recognition by all three clones”.
As for VLRDDLLEA, in assay [1] (HA-1^R versus HA-1^H peptide), the “binding affinity for HLA-A2.1, fold lower than the HA-1^H peptide” value is 10 fold. Also, in assay [1], the IC50 was determined as 365 nM and the “binder category for HLA-A2.1” value is reported as “intermediate binders”. Further, in assay [2] (clone 3HA15), the “peptide concentration needed for recognition, times higher than for the HA-1^H peptide” value was 1000 times. Moreover, the “recognition by HA-1 specific CTL clones / reconstitution of the HA-1 epitope” value in assay [2] is “One out of three clones (3HA15) tested showed recognition”.
Regarding “YXTDRVMTV [synthetic peptide of candidate m/z 550; X stands for isoleucine or leucine]”, the “recognition by HA-1 specific CTL clones / reconstitution of the HA-1 epitope” value in assay [2] is recorded as “not able to reconstitute the HA-1 epitope”.
